Patent US12012467B2, “Small molecule DCN1 inhibitors and therapeutic methods using the same” (THE REGENTS OF THE UNIVERSITY OF MICHIGAN, priority 2017, dated 2024)
Square brackets hold non-standard residues; d marks the D form. Peptide text beside a SMILES is read from it. * marks the point of attachment. Ala(6-iPr-benzothiazol-2-yl) = CC(C)c1ccc2nc(C[C@H](N)C(=O)O)sc2c1; Propionyl = CCC(=O)*; For = O=C*

What follows are molecules tested against DCN1 (Homo sapiens (Human), UniProt Q96GG9) (assay: Competitive FP binding assay). Details: bounds given in μM; read-out: Binding affinity to DCN1 (IC50).
Chain of DCN1 (Q96GG9 58-259): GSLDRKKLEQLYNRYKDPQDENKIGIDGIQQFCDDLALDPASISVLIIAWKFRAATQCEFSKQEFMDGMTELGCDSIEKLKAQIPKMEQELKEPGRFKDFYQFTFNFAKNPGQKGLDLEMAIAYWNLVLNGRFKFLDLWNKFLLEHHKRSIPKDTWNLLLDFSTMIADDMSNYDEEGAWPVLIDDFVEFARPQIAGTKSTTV
How it was run: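 FP competition with DCN1 in 100 mM phosphate pH 6.5, 0.02% Tween-20, 2% DMSO, probe 5 nM final. Equilibrated 30 min at room temperature with shaking. DCN1 was His6-tagged (uncleaved), expressed in E. coli Rosetta2 and purified by Ni-NTA and gel filtration.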

SMILES | IC50
CCC(=O)N[C@H](Cc1nc2ccc(Cl)cc2s1)C(=O)N[C@H](C(=O)N[C@@H](CCCCN)C(=O)N[C@@H]1CCOc2ccccc21)C1CCOCC1 [Example 199] | > 10 µM
CCC(=O)N[C@H](Cc1nc2ccc(Cl)cc2s1)C(=O)N[C@@H](C[C@H]1CC[C@H](CN)CC1)C(=O)N[C@@H](CCCCN)C(=O)N[C@@H]1CCOc2ccccc21 [Example 201] | > 10 µM
CCC(=O)N[C@H](Cc1nc2ccc(Cl)cc2s1)C(=O)N[C@@H](C(=O)N[C@H](CCCCN)C(=O)N[C@H]1CCOc2ccccc21)C1CCOCC1 [Example 204] | > 10 µM
CN(C)CCCC[C@H](NC(=O)[C@@H](NC(=O)[C@@H](N)Cc1nc2ccc(Cl)cc2s1)C1CCCC1)C(=O)N[C@@H]1CCOc2ccccc21 [Example 205] | > 10 µM
CCC(=O)N[C@@H](Cc1nc2ccc(Cl)cc2s1)C(=O)N[C@@H](C)CN [Example 220] | > 10 µM
CCC(=O)N[C@@H](Cc1nc(CC)c(-c2ccccc2)s1)C(=O)N[C@H](CN)Cc1ccccc1 [Example 225] | > 3 µM
CCC(=O)N[C@@H](Cc1nc(C)c(-c2ccccn2)s1)C(=O)N[C@H](CN)Cc1ccccc1 [Example 228] | > 10 µM
CCC(=O)N[C@@H](Cc1nc(C)c(-c2cccnc2)s1)C(=O)N[C@H](CN)Cc1ccccc1 [Example 229] | > 10 µM
CCC(=O)N[C@@H](Cc1nc(C)c(-c2ccncc2)s1)C(=O)N[C@H](CN)Cc1ccccc1 [Example 230] | > 10 µM
CCC(=O)N[C@@H](Cc1nc(C)c(-c2cccc(C#N)c2)s1)C(=O)N[C@H](CN)Cc1ccccc1 [Example 231] | > 10 µM
CCC(=O)N[C@@H](Cc1nc(C)c(-c2cccc(C(F)(F)F)c2)s1)C(=O)N[C@H](CN)Cc1ccccc1 [Example 233] | > 10 µM
CCC(=O)N[C@@H](Cc1nc2ccc(Cl)cc2s1)C(=O)NCCN [Example 235] | > 10 µM
COCCC(=O)N[C@@H](Cc1nc2ccc(Cl)cc2s1)C(=O)NCCN [Example 236] | > 10 µM
NCCNC(=O)[C@H](Cc1nc2ccc(Cl)cc2s1)NC(=O)CCOc1ccccc1 [Example 237] | > 10 µM
NCCNC(=O)[C@H](Cc1nc2ccc(Cl)cc2s1)NC(=O)CCOCc1ccccc1 [Example 238] | > 10 µM
CCC(=O)N[C@@H](Cc1cn(-c2cccc(Cl)c2)cn1)C(=O)N[C@H](CN)Cc1ccccc1 [Example 239] | > 10 µM
CCC(=O)N[C@@H](Cc1nc2ccc(Cl)cc2s1)C(=O)NCc1ccccn1 [Example 251] | > 5 µM
CCC(=O)N[C@@H](Cc1nc2ccc(Cl)cc2s1)CN(Cc1ccccc1)Cc1ccccc1 [Example 259] | > 10 µM
CCC(=O)N[C@H](CNC(=O)[C@H](N)C1CCCC1)Cc1nc2ccc(Cl)cc2s1 [Example 261] | > 5 µM
CCC(=O)N[C@@H](Cc1nc2ccc(C(C)C)cc2s1)C(=O)N[C@H](C(=O)NCCN1CCOCC1)C1CCNCC1 [Example 265] | > 10 µM
CCC(=O)N[C@H](CNC(=O)C1(N)CCC(C)(C)CC1)Cc1nc2ccc(C(C)C)cc2s1 [Example 269] | > 10 µM
CCC(=O)N[C@H](CNC(=O)[C@H]1CCCCN1)Cc1nc2ccc(C(C)C)cc2s1 [Example 270] | > 10 µM
CC[C@H](C)[C@H](NC(=O)[C@@H](N)Cc1nc2ccc(C(C)C)cc2s1)C(=O)N[C@@H](CCCCN)C(=O)N[C@@H](CC(C)C)C(N)=O [Example 272] (H-[Ala(6-iPr-benzothiazol-2-yl)]IKL-NH2) | > 10 µM

Same assay, conditions: read-out: Binding affinity to DCN1 (IC50 (nM))

SMILES | IC50
CCC(=O)N[C@@H](Cc1nc2ccc(Cl)cc2s1)C(=O)N[C@@H](C[C@H]1CC[C@H](CN)CC1)C(=O)N[C@@H](CCCCN)C(=O)N[C@@H]1CCOc2ccccc21 [Example 200] | 0.203 µM
CCC(=O)N[C@@H](Cc1nc2ccc(Cl)cc2s1)C(=O)N[C@@H](Cc1ccccn1)C(=O)N[C@@H](CCCCN)C(=O)N[C@@H]1CCOc2ccccc21 [Example 202] | 0.251 µM
CCC(=O)N[C@@H](Cc1nc2ccc(Cl)cc2s1)C(=O)N[C@@H](Cc1ccncc1)C(=O)N[C@@H](CCCCN)C(=O)N[C@@H]1CCOc2ccccc21 [Example 203] | 0.282 µM
CCC(=O)N[C@@H](Cc1nc2ccc(C(C)C)cc2s1)C(=O)N[C@H](C(=O)N[C@@H](CCCCN)C(=O)N[C@@H]1CCOc2ccccc21)C1CCOCC1 [Example 206] | 0.0429 µM
CCC(=O)N[C@@H](Cc1nc(C)c(-c2cccc(Cl)c2)s1)C(=O)N[C@H](C(=O)N[C@@H](CCCCN)C(=O)N[C@@H]1CCOc2ccccc21)C1CCOCC1 [Example 207] | 0.139 µM
CCC(=O)N[C@@H](Cc1cn2cc(Cl)ccc2n1)C(=O)N[C@H](C(=O)N[C@@H](CCCCN)C(=O)N[C@@H]1CCOc2ccccc21)C1CCOCC1 [Example 208] | 0.157 µM
CNC(=O)N[C@@H](Cc1nc2ccc(Cl)cc2s1)C(=O)N[C@H](C(=O)N[C@@H](CCCCN)C(=O)N[C@@H]1CCOc2ccccc21)C1CCOCC1 [Example 209] | 0.278 µM
CCC(=O)N[C@@H](Cc1cn2cc(Cl)ccc2n1)C(=O)N[C@H](C(=O)N[C@@H](CCCCN)C(=O)N[C@@H]1CCOc2ccccc21)C1CCCC1 [Example 212] | 0.0556 µM
CCC(=O)N[C@@H](Cc1nc2ccc(Cl)cc2s1)C(=O)N[C@H](CN)[C@@H](C)CC [Example 213] | 0.746 ± 0.072 µM
CCC(=O)N[C@@H](Cc1nc2ccc(C)cc2s1)C(=O)N[C@H](CN)[C@@H](C)CC [Example 214] | 0.491 µM
CCC(=O)N[C@@H](Cc1nc2ccc(CC)cc2s1)C(=O)N[C@H](CN)[C@@H](C)CC [Example 215] | 0.23 µM
CCC(=O)N[C@@H](Cc1nc2ccc(Cl)cc2s1)C(=O)N[C@H](CN)C1CCCC1 [Example 216] | 0.559 µM
CCC(=O)N[C@@H](Cc1nc2ccc(Cl)cc2s1)C(=O)N[C@H](CN)C1CCCCC1 [Example 217] | 0.346 µM
CCC(=O)N[C@@H](Cc1nc2ccc(Cl)cc2s1)C(=O)N[C@H](CN)CC1CCCCC1 [Example 218] | 0.316 µM
CCC(=O)N[C@@H](Cc1nc2ccc(Cl)cc2s1)C(=O)N[C@H](CN)C1CCOCC1 [Example 219] | 1.56 µM
CCC(=O)N[C@@H](Cc1nc2ccc(Cl)c(Cl)c2s1)C(=O)N[C@H](CN)Cc1ccccc1 [Example 221] | 0.294 µM
CCC(=O)N[C@@H](Cc1nc2ccc(Br)cc2s1)C(=O)N[C@H](CN)Cc1ccccc1 [Example 222] | 0.858 µM
CCC(=O)N[C@@H](Cc1nc2ccc(C(C)(C)C)cc2s1)C(=O)N[C@H](CN)Cc1ccccc1 [Example 223] | 0.949 µM
CCC(=O)N[C@@H](Cc1nc2ccc(Cl)cc2s1)C(=O)N[C@H](C(=O)NCCCCCN(C)C)C1CCCC1 [Example 224] | 0.575 µM
CCC(=O)N[C@@H](Cc1nc2ccc(Cl)cc2s1)C(=O)N[C@H](CNC(=O)[C@H](C)CN1CCOCC1)Cc1ccccc1 [Example 226] | 0.611 µM

SMILES | IC50
CCC(=O)N[C@@H](Cc1nc2ccc(Cl)cc2s1)C(=O)N[C@H](CNC(=O)[C@@H](C)CN1CCOCC1)Cc1ccccc1 [Example 227] | 0.471 µM
CCC(=O)N[C@@H](Cc1nc(C)c(-c2cccc(Br)c2)s1)C(=O)N[C@H](CN)Cc1ccccc1 [Example 232] | 0.984 µM
CCC(=O)N[C@@H](Cc1nc(C)c(-c2cccc(F)c2)s1)C(=O)N[C@H](CN)Cc1ccccc1 [Example 234] | 1.28 µM
CCC(=O)N[C@@H](Cc1nc2ccc(Cl)cc2s1)C(=O)N[C@H](C(=O)N[C@@H](CCCCN)C(=O)NCc1ccccn1)C1CCOCC1 [Example 241] | 0.913 µM
CCC(=O)N[C@@H](Cc1nc2ccc(Cl)cc2s1)C(=O)N[C@H](C(=O)N[C@@H](CCCCN)C(=O)NCc1cccnc1)C1CCOCC1 [Example 242] | 1.2 µM
CCC(=O)N[C@@H](Cc1nc2ccc(Cl)cc2s1)C(=O)N[C@H](C(=O)N[C@@H](CCCCN)C(=O)NCc1ccncc1)C1CCOCC1 [Example 243] | 1.51 µM
CCC(=O)N[C@H](CNC(=O)c1ccccc1)Cc1nc2ccc(Cl)cc2s1 [Example 252] | 1.83 µM
CCC(=O)N[C@H](CNC(=O)Cc1ccccc1)Cc1nc2ccc(Cl)cc2s1 [Example 253] | 1.2 µM
CCC(=O)N[C@H](CNC(=O)C1CCCCC1)Cc1nc2ccc(Cl)cc2s1 [Example 254] | 1.34 µM
CCC(=O)N[C@H](CNC(=O)CC1CCCC1)Cc1nc2ccc(Cl)cc2s1 [Example 255] | 0.802 µM
CCC(=O)N[C@H](CNC(=O)c1ccccn1)Cc1nc2ccc(Cl)cc2s1 [Example 256] | 2.14 µM
CCC(=O)N[C@H](CNC(=O)Cc1ccccn1)Cc1nc2ccc(Cl)cc2s1 [Example 257] | 3.45 µM
CCC(=O)N[C@H](CNC(=O)Nc1ccccc1)Cc1nc2ccc(Cl)cc2s1 [Example 258] | 3.92 µM
CCC(=O)N[C@H](CNC(=O)[C@@H](N)C1CCCC1)Cc1nc2ccc(Cl)cc2s1 [Example 260] | 1.2 µM
CC(C)c1ccc2nc(C[C@H](NC(=O)C3CC3)C(=O)N[C@H](CN)C3CCCCC3)sc2c1 [Example 262] | 0.155 µM
CC(C)C(=O)N[C@@H](Cc1nc2ccc(C(C)C)cc2s1)C(=O)N[C@H](CN)C1CCCCC1 [Example 263] | 0.139 µM
CCC(=O)N[C@@H](Cc1nc2ccc(C(C)C)cc2s1)C(=O)N[C@H](C(=O)NCCN1CCOCC1)C1CCN(C(=O)OC(C)(C)C)CC1 [Example 264] | 1.5 µM
CCC(=O)N[C@@H](Cc1nc2ccc(C(C)C)cc2s1)C(=O)N[C@H](CNC(=O)c1ncc[nH]1)C1CCCCC1 [Example 268] | 1.21 µM
CC[C@H](C)[C@H](NC(=O)[C@H](Cc1nc2ccc(C(C)C)cc2s1)NC=O)C(=O)N[C@@H](CCCCN)C(=O)N[C@@H](CC(C)C)C(N)=O [Example 271] (For-[Ala(6-iPr-benzothiazol-2-yl)]IKL-NH2) | 0.122 µM
CCC(=O)N[C@@H](Cc1nc2ccc(C(C)C)cc2s1)C(=O)N[C@H](C(=O)N[C@@H](CCCCN)C(=O)N[C@@H](CC(C)C)C(N)=O)[C@@H](C)CC [Example 273] (Propionyl-[Ala(6-iPr-benzothiazol-2-yl)]IKL-NH2) | 0.051 µM
